The conditions of series [1]: cited from earlier work.
Series [2] can be described thus: Permeability studies, Franz diffusion cells. The conditions noted are these: pig. In kind it is in vitro ADME. The protocol: Freshly collected buccal tissues were obtained from pig and mucosa's were isolated carefully. The prepared mucosa membranes with approximate size of 4 cm^2 were mounted between donor and receiver chambers of Franz diffusion cells with available diffusion area of 1.77 cm^2. Test treatments and controls were run in quadruplicate. The receiver compartment, which contained a stirring bar, was filled with 8 mL of KRB buffer, pH 7.4 containing 1% BSA. The Franz cells were placed in a heating/stirring block. The temperature was set at 37° C. in order to maintain the tissue surface temperature at 32° C.; the stirring rate was set at 400 rpm. Two milliliters of formulated compound at different pHs was added to the donor chambers, completely covering the exposed mucosa. All dosing solutions contained 0.1% of sodium dithionite, 0.2% DMSO and 5% propylene glycol or glycerin. The donor compartment was covered with Parafilm to minimize evaporation. An aliquot (˜0.5 mL) was taken from the receiver compartment at 2, 60, 90, and 120 min and replaced with an equal volume of buffer warmed at 37° C. Sampling time points from donor compartment were 0, 60, 90 and 120 min. Samples were diluted with 0.5 mL (1:1) of 10% aq. ascorbic acid. The concentration of each analyte was quantified by LC-MS/MS (Appendix I). The whole study was done in dark with yellow light, and glass vials and syringes were used for sampling. […] Cd final is the concentration of the donor at the end of the incubation period (interval), μM.

For series [3] the following is noted: subcutaneous injection, 0.5 mg/kg, literature value; cited from earlier work.

Where a name gives a salt, the structure may show the parent alone.

Broadly, the Papp is the rate of passage across a membrane or cell layer, normalised by area and donor concentration. As to `CN1CCc2cccc3c2[C@H]1Cc1ccc(O)c(O)c1-3` [apomorphine], the “adverse effects of intranasal administration” value in series [1] (intranasal administration) was “transient nasal blockage, burning sensation and swollen nose and lips”. Further, the “side effect of subcutaneous injection” value in series [1] (subcutaneous injection) was “development of nodules, which often become infected”. For the same compound, the “adverse effects of sublingual tablets” value in series [1] (sublingual administration of tablets, prolonged use) is given as “severe stomatitis on prolonged use with buccal mucosal ulceration in half the patients”. The Papp at 120 min in series [2] (pH 6.4, pH 6.4) came out at 0.071 ×10⁻⁶ cm/s; in series [2] (pH 6.8, pH 6.8), 0.054 ×10⁻⁶ cm/s; in series [2] (pH 7.4, pH 7.4) it was 0.185 ×10⁻⁶ cm/s; in series [2] (pH 8, pH 8.0) it was 0.556 ×10⁻⁶ cm/s; in series [2] (pH 8, pH 8.0 + 1% glycerin monostearate), 2.34 ×10⁻⁶ cm/s; in series [2] (pH 8, pH 8.0 + 1% magnesium stearate) it was 0.3 ×10⁻⁶ cm/s. In addition, in series [2] (pH 8, pH 8.0 + 1% tocopherol acetate), the Papp at 120 min worked out at 0.98 ×10⁻⁶ cm/s.
In general, Cmax refers to the highest concentration seen after dosing. One may read the Tmax as the time from dosing to the highest level. As for `CN1CCc2cccc3c2[C@H]1Cc1ccc(O)c(O)c1-3` [sc inj, apomorphine hydrochloride], in series [3], the AUCinf is 17828 ng·min/mL, the maximum concentration (Cmax) is 331 ng/mL and the time to peak (Tmax) is 25 min.

Values taken from US9283219B2, “Sublingual films” (Cynapsus Therapeutics, Inc., priority 2010, dated 2016).
